The text below walks through data of patent US20140179766A1, “IDENTIFICATION OF THROMBOSIS OR BLEEDING RISK IN AN INDIVIDUAL WITH AND WITHOUT ANTI-PLATELET THERAPY” (ROYAL COLLEGE OF SURGEONS IN IRELAND, priority 2011, published 2014).

This test has as its system 11-dehydro-thromboxane B2 (TxM). Put plainly: Urinary TxM (11-dehydro-thromboxane B2) by liquid chromatography/tandem mass spectrometry in participants of the HACVD sub-study of ASCOT. The format is in vivo, human. As to conditions: SNP association with TxM seen only in patients not taking aspirin. The method, then:
The genetic determinants of urinary TxM were investigated. 540 participants in the Hypertension Associated Cardiovascular Disease (HACVD) sub-study of ASCOT gave urine samples at two separate time-points. TxM was measured using liquid chromatography/tandem mass spectrometry, expressed as pg/mg creatinine to correct for urine concentration. All subjects were genotyped on the CVD50K chip, a cardiovascular-specific chip with >50,000 SNPs. Usual quality control measures were applied. Linear regression analysis was performed, assuming an additive genetic model, adjusting for the covariates; age, sex, smoking habit, diabetes, systolic blood pressure, BMI, HDL, LDL, aspirin and anti-hypertensive regimen.
Most interesting of all was the observation that the association of TxM with the 21 PPARGC1β gene SNPs was almost totally driven by the patients not taking aspirin (beta-values range; +184-+392 pg/mg p-values range; 0.00002-0.06), whilst associations between these same 21 SNPs and TxM amongst aspirinated subjects were in large part not statistically significant (beta-values range; −10-+134 pg/mg p-values range; 0.02-0.97).

For `CC(=O)Oc1ccccc1C(=O)O` [aspirin], the “Effect on excess production of thromboxane in carriers of PPARGC1β genetic variants” value was “completely, or in large part, blocks the excess production of thromboxane”.
